Counter-ions that a name gives are not always drawn.
melting point	SMILES
245 to 248 °C	COc1cc2ncnc(Nc3ccc(Cl)c4ccccc34)c2cc1OC (as salt: salt) [P-415, 4-(4′-Chloronaphthy-1′)-amino-6,7-dimethoxyquinazoline]
245 to 247 °C	COc1cc2ncnc(Nc3ccc(O)cc3Cl)c2cc1OC (as salt: salt) [P-278, 4-(4′-Hydroxyl-2′-chlorophenyl)-amino-6,7-dimethoxy-quinazoline]
248 to 250 °C	COc1cc2ncnc(Nc3ccc(O)c(I)c3)c2cc1OC (as salt: salt) [P-299, 4-(4′-Hydroxy-3′-iodophenyl)-amino-6,7-dimethoxyquinazoline]
225 to 230 °C	COc1cc2ncnc(Nc3ccccc3I)c2cc1OC (as salt: salt) [P-270, 4-(2′-Iodophenyl)-amino-6,7-dimethoxyquinazoline]
268 to 270 °C	COc1cc2ncnc(Nc3ccc(O)c(F)c3)c2cc1OC (as salt: salt) [P-369, 4-(4′Hydroxyl-3′-fluorophenyl)-amino-6,7-dimethoxyquinazoline]
235 to 240 °C	COc1cc2ncnc(Nc3ccc(CCO)cc3)c2cc1OC [P-265, 4-[4′-(2″-Hydroxylethylphenyl)]-amino-6,7-dimethoxyqui-nazoline]
243 to 245 °C	COc1cc2ncnc(Nc3ccc(C(F)(F)F)cc3)c2cc1OC [P-223, 4-(4′-Trifluoromethylphenyl)-amino-6,7-dimethoxyquinazoline]
242 to 245 °C	COc1cc2ncnc(Nc3ccccc3C(F)(F)F)c2cc1OC [P-228, 4-(2′-Trifluoromethylphenyl)-amino-6,7-dimethoxyquinazoline]
235 to 237 °C	COc1cc2ncnc(Nc3ccccc3OC(F)(F)F)c2cc1OC (as salt: salt) [P-365, 4-(2′-Trifluoromethoxylphenyl)-amino-6,7-dimethoxyquinazoline]
250 to 255 °C	COc1cc2ncnc(Nc3c(Br)cc(Br)cc3Br)c2cc1OC [P-222, 4-(2′,4′,6′-Tribromophenyl)amino-6,7-dimethoxyquinazoline]
257 to 262 °C	COc1cc2ncnc(Nc3ccc(Br)cc3Br)c2cc1OC [P-263, 4-(2′,4′-Dibromophenyl)-amino-6,7-dimethoxyquinazoline]

More lines, now with the values behind:

SMILES	melting point
COc1cc2ncnc(Nc3cc(Br)c(C)cc3Br)c2cc1OC (as salt: salt) [P-211, 4-(2′,5′-Dibromo-4′-methylphenyl)-amino-6,7-dimethoxyquinazoline]	282 to 284 °C
COc1cc2ncnc(Nc3cc(Cl)ccc3O)c2cc1OC (as salt: salt) [P-93, 4-(3′-Chlooro-6′-hydroxylphenyl)amino-6,7-dimethoxyquinazoline]	295 °C (dec.)
COc1cc2ncnc(Nc3ccc(Br)cc3CO)c2cc1OC (as salt: salt) [P-190, 4-(4′-Bromo-6′-hydroxymethylphenyl)-amino-6,7-dimethoxyquinazoline]	222 to 223 °C
COc1cc2ncnc(Nc3cc(Br)c(C)c(Br)c3)c2cc1OC [P-212, 4-(3′,5′-Dibromo-4′-methylphenyl)-amino-6,7-dimethoxyquinazoline]	275 to 279 °C
COc1cc2ncnc(Nc3ccc4c(c3)Cc3cc(Br)ccc3-4)c2cc1OC (as salt: salt) [P-160, 4-[(7′-Bromofluorene)-2]-amino-6,7-dimethoxyquinazoline]	254 to 256 °C
COc1cc2ncnc(Nc3ccccc3CO)c2cc1OC [P-191, 4-(6′-Hydroxymethylphenyl)-amino-6,7-dimethosyquinazoline]	215 to 218 °C
COc1cc2ncnc(Nc3ccc(C)c(Br)c3Br)c2cc1OC [P-210, 4-(2′,3′-Dibromo-4′-methylphenyl)-amino-6,7-dimethoxyquinazoline]	233 to 236 °C
COc1cc2ncnc(Nc3cnc(O)nc3O)c2cc1OC [P-215, 4-(2′,4′-Dihydroxyl-1′,3′-diazine-5′)-amino-6,7-dime-thoxyquinazoline]	> 300 °C
